Test results reported in patent US10772909B2, “System and method for insulin-mimetic of cartilage, bone, or osteochondral repair and piezoelectric composite scaffold” (New Jersey Institute of Technology, priority 2016, dated 2020).

Test system: collagen type II
Assay: Chondrogenesis culture: gene expression by RT-PCR, collagen type II
Format: cell-based, human
Details: for collagen type II gene expression vs 0 and 1 mM groups: CCM without insulin, days 14 and 28; for collagen type II gene expression vs 0 mM: day 14
Procedure: Chondrogenesis Culture. Cryopreserved MSCs were thawed and expanded in GM until 70-80% confluent. Cells were trypsininzed and then seeded on 6 mm diameter scaffold disks at 1.76×10^5 cells/cm^2 and cultured for 28 days in GM, chondrogenic induction medium (CCM), or CCM without insulin, according to previously published methods. CCM consisted of DMEM high glucose containing 4 mM L-glutamine (Invitrogen, Grand Island, N.Y., USA), 0.1 μM dexamethasone (Sigma-Aldrich), 0.17 mM ascorbic acid-2-phosphate (Wako Chemicals, Richmond, Va., USA), 1% ITS+(6.25 µg/mL insulin, 6.25 µg/mL transferrin, 6.25 ng/mL selenous acid, 5.35 μg/ml linoleic acid and 1.25 mg of bovine serum albumin) Premix Culture Supplement (Corning, Corning, N.Y., USA), 1× antibiotic-antimycotic, 1 mM sodium pyruvate (Sigma-Aldrich), 0.35 mM proline (Sigma-Aldrich), and 10 ng/mL recombinant human transforming growth factor-beta3 (TGF-β3, ProSpec, Israel). CCM without insulin consisted of CCM where the 1% ITS+Premix Culture Supplement was substituted with 1% stock solution (6.25 μg/ml transferrin and 6.25 ng/ml selenous acid, 5.35 μg/ml lionleic acid (Sigma-Aldrich) and 1.25 mg of bovine serum albumin (Fisher Scientific). Na2WO4 was added to all media leading to final Na2WO4 concentrations of 0, 0.01, 0.1 and 1 mM. Samples were harvested and analyzed for sulfated glycosaminoglycans (sGAG), cell number and gene expression at day 14 and 28 and for collagen type II and immunostaining at day 28.
Gene expression was evaluated using quantitative reverse transcription (RT)-polymerase chain reaction (PCR) analysis. RT-PCR was performed with RNeasy Micro Kit and SYBR Green RT-PCR Kit (Qiagen; Valencia, Calif., USA) using the MX4000 detection system (Stratagene) according to the manufacturer's protocol. Relative gene expression of SOX-9, aggrecan and collagen type II were determined. Samples (n=4 per group) were harvested and digested using Lysis Buffer. RNA was isolated from the samples using RNeasy Micro Kit (Qiagen) including DNA digestion step (RNase Free DNase Set; Qiagen). The RNA quantity and integrity were determined by measuring the absorbance at 260 nm and the absorbance ratio of 260 nm/280 nm, respectively, using Nanodrop™ Spectrophotometer (Thermo Fisher Scientific). Quantitative PCR analysis was performed using QuantiTect SYBR Green supermix including the QuantiTect Primer Assays. The reverse transcription step ran for 30 minutes at 50° C., 15 minutes at 95° C. of PCR activation followed by forty cycle of amplification consisting of 15 s denaturation at 94° C., 30 s of annealing at 55° C., and 30 s of extension at 72° C. A melting curve analysis of the RT-PCR product was included for each reaction. Samples were analyzed in triplicate and the value of each gene was normalized to the reference gene ribosomal protein, large, P0 (RPLP0) for the same sample (ΔCT). Primers were purchased from Qiagen (Hs_ACAN, QT00001365; Hs_SOX9, QT00001498; Hs_COL2A1, QT00049518; and Hs_RPLP0 QT00075012).

Which results are given for `[Na+].[Na+].[O]=[W](=[O])([O-])[O-]` [Na2WO4, sodium tungstate]?
collagen type II gene expression, change between days 14 and 28 (0.01 mM Na2WO4, CCM): significant increase in collagen type II expression; collagen type II gene expression vs 0 and 1 mM groups (0.01 mM Na2WO4): significantly higher; collagen type II gene expression vs 0 mM (0.01 mM Na2WO4, CCM, p<0.001): significantly higher collagen type II; collagen type II gene expression vs all groups (0.01 mM Na2WO4, CCM, day 28, p<0.001): significantly higher; collagen type II gene expression vs 0 and 1 mM groups (0.1 mM Na2WO4): significantly higher; collagen type II gene expression vs 0 mM (0.1 mM Na2WO4, CCM, p<0.001): significantly higher collagen type II; collagen type II gene expression (1 mM Na2WO4, CCM): lowest gene expression; collagen type II gene expression (chondrogenic genes) (GM with Na2WO4): no significant upregulation of chondrogenic genes
